Experimental data taken from patent US20250161308A1, “Methods of Treating Covid-Related Disorders” (priority 2022, published 2025).
Read-outs that look alike come from different tables or passages of the source.

How the values were obtained:
[1] = system: scopolamine-induced spatial memory deficits in rats; assay: Scopolamine-induced spatial memory deficit, Morris water maze (3 mg/kg scopolamine, 8 days); type: in vivo, rat
[2] = system: THP1-differentiated macrophages; type: cell-based, human; parameters: key to Significant reduction in IL-6 / Significant reduction in TNF-α / Significant reduction in IL-1β: NS: indicates a non-significant reduction in the indicated cytokine; +: indicates a p value<0.05 in Tukey post test; ++: indicates a p value<0.01 in Tukey post test; conditions: for Significant reduction in IL-1β / Significant reduction in IL-6 / Significant reduction in TNF-α: 24 hrs LPS
[3] = system: Rat primary cortical neuron cultures; type: cell-based; conditions: for Significance of neuroprotection vs 1 uM LPS: 24 h LPS; for protection of primary neurons from LPS-stimulated inflammatory toxicity: at at least one dose tested
[4] = system: pulmonary LPS-stimulated rats; assay: Cytokine expression in BALF supernatant (multiplex immunoassay), LPS acute pulmonary inflammation; type: in vivo, rat
[5] = system: pulmonary LPS-stimulated rats; assay: Immune cell infiltration in BALF, LPS acute pulmonary inflammation; type: in vivo, rat
Rat hippocampal neurons [6] = assay: Synaptogenesis assay; type: cell-based; conditions: for Significant increase in: Synapses: Table 4 study
[7] = system: LPS-induced cognitive deficit in CD-1 mice; assay: Rodent LPS model of brain inflammation, T-maze spontaneous alternation; type: in vivo, mouse; conditions: for Recovery (%) / Spontaneous alternation (%) Mean: LPS 250 μg/kg
Rat hippocampal neurons [8] = assay: Neurite outgrowth assay; type: cell-based

For `CCC(C)CN1CC2N(Cc3ccc(OC(F)F)cc3)CCC(=O)N2[C@@H](C)C1=O` (some centres unmarked) [Compound 6a], the “Cognitive Improvement” value ([1]; 1 mg/kg PO) was “− (− indicates post-test p-value above 0.06)”, the “Cognitive Improvement” value ([1]; 10 mg/kg PO) was “++ (++ indicates post-test p-value between 0.05 and 0.01)” and the “Significant reduction in IL-1β” value ([2]; 0.1 nM) was “NS”. For the same molecule, the “Significant reduction in IL-6” value ([2]; 0.1 nM) was “NS”, the “Significant reduction in TNF-α” value ([2]; 0.1 nM) was “NS” and the “Significant reduction in IL-1β” value ([2]; 10 nM) was “NS”. For the same molecule, the “Significant reduction in IL-6” value ([2]; 10 nM) was “NS”, the “Significant reduction in TNF-α” value ([2]; 10 nM) was “NS” and the “Significant reduction in IL-1β” value ([2]; 1000 nM) was “+ (indicates a p value<0.05 in Tukey post test)”. The “Significant reduction in IL-6” value ([2]; 1000 nM) was “NS”, the “Significant reduction in TNF-α” value ([2]; 1000 nM) was “+ (indicates a p value<0.05 in Tukey post test)” and the “expression of IL-1β (in words)” value ([2]; at at least one tested dose) was “significantly reduced the expression of IL-1β and TNF-α”. The “expression of TNF-α (in words)” value ([2]; at at least one tested dose) was “significantly reduced the expression of IL-1β and TNF-α”, the “Significance of neuroprotection vs 1 uM LPS” value (“Significance … vs 1 uM LPS” below) ([3]; 0.1 nM) was “+++ (+++ indicates p<0.001)” and the “Significance … vs 1 uM LPS” value ([3]; 1 nM) was “+++ (+++ indicates p<0.001)”. For the same molecule, the “Significance … vs 1 uM LPS” value ([3]; 10 nM) was “+++ (+++ indicates p<0.001)”, the “Significance … vs 1 uM LPS” value ([3]; 100 nM) was “+++ (+++ indicates p<0.001)” and the “Significance … vs 1 uM LPS” value ([3]; 1 μM) was “+++ (+++ indicates p<0.001)”. The “protection of primary neurons from LPS-stimulated inflammatory toxicity” value [3] was “protected primary neurons from LPS-stimulated inflammatory toxicity”.
For `CCC(C)CN1CC2N(Cc3ccc(C(F)(F)F)cc3)CCC(=O)N2[C@@H](C)C1=O` (some centres unmarked) [Compound 5a], the “CCL3, significant change in expression in BALF supernatant” value ([4]; 0.075 mg/kg IV) was “+ (+ = Significant change in cytokine quantification, p < 0.05 by Student's T-test.)”, the “CX3CL1, significant change in expression in BALF supernatant” value ([4]; 0.075 mg/kg IV) was “+ (+ = Significant change in cytokine quantification, p < 0.05 by Student's T-test.)” and the “EGF, significant change in expression in BALF supernatant” value ([4]; 0.075 mg/kg IV) was “+ (+ = Significant change in cytokine quantification, p < 0.05 by Student's T-test.)”. For the same molecule, the “IFN-γ, significant change in expression in BALF supernatant” value ([4]; 0.075 mg/kg IV) was “+ (+ = Significant change in cytokine quantification, p < 0.05 by Student's T-test.)”, the “IL-1α, significant change in expression in BALF supernatant” value (from here on “IL-1α, significant change in expression”) ([4]; 0.075 mg/kg IV) was “+ (+ = Significant change in cytokine quantification, p < 0.05 by Student's T-test.)” and the “IL-1β, significant change in expression in BALF supernatant” value ([4]; 0.075 mg/kg IV) was “+ (+ = Significant change in cytokine quantification, p < 0.05 by Student's T-test.)”. The “IL-10, significant change in expression in BALF supernatant” value (“IL-10, significant change in expression” below) ([4]; 0.075 mg/kg IV) was “+ (+ = Significant change in cytokine quantification, p < 0.05 by Student's T-test.)”, the “IL-12p70, significant change in expression in BALF supernatant” value ([4]; 0.075 mg/kg IV) was “+ (+ = Significant change in cytokine quantification, p < 0.05 by Student's T-test.)” and the “IL-17A, significant change in expression in BALF supernatant” value ([4]; 0.075 mg/kg IV) was “+ (+ = Significant change in cytokine quantification, p < 0.05 by Student's T-test.)”. For the same molecule, the “IFN-γ, significant change in expression in BALF supernatant” value ([4]; 0.75 mg/kg IV) was “+ (+ = Significant change in cytokine quantification, p < 0.05 by Student's T-test.)”, the “IL-1α, significant change in expression” value ([4]; 0.75 mg/kg IV) was “+ (+ = Significant change in cytokine quantification, p < 0.05 by Student's T-test.)” and the “IL-1β, significant change in expression in BALF supernatant” value ([4]; 0.75 mg/kg IV) was “+ (+ = Significant change in cytokine quantification, p < 0.05 by Student's T-test.)”. The “IL-10, significant change in expression” value ([4]; 0.75 mg/kg IV) was “+ (+ = Significant change in cytokine quantification, p < 0.05 by Student's T-test.)”, the “IL-17A, significant change in expression in BALF supernatant” value ([4]; 0.75 mg/kg IV) was “+ (+ = Significant change in cytokine quantification, p < 0.05 by Student's T-test.)” and the “IL-1α, significant change in expression” value ([4]; 7.5 mg/kg IV) was “+ (+ = Significant change in cytokine quantification, p < 0.05 by Student's T-test.)”. The “IL-10, significant change in expression” value ([4]; 7.5 mg/kg IV) was “+ (+ = Significant change in cytokine quantification, p < 0.05 by Student's T-test.)”, the “cytokines with significant changes in expression in BALF supernatant (list)” value ([4]; any dose, p<0.05 vs LPS-only animals) was “CCL3, CXCL1, IFN-γ, IL-1α, IL-1p, IL-1β, IL-12p70, and IL-17A” and the “Neutrophils in BALF, reduction vs disease control” value (shortened to “Neutrophils in BALF, reduction”) ([5]; 0.075 mg/kg IV) was “++ (++ = >25% reduction in cell count vs disease control)”. For the same molecule, the “Total Leukocytes in BALF, reduction vs disease control” value (from here on “Total Leukocytes in BALF, reduction”) ([5]; 0.075 mg/kg IV) was “++ (++ = >25% reduction in cell count vs disease control)”, the “Neutrophils in BALF, reduction” value ([5]; 0.75 mg/kg IV) was “+ (+ = >5% reduction in cell count vs disease control)” and the “Total Leukocytes in BALF, reduction” value ([5]; 0.75 mg/kg IV) was “+ (+ = >5% reduction in cell count vs disease control)”. The “Neutrophils in BALF, reduction” value ([5]; 7.5 mg/kg IV) was “+ (+ = >5% reduction in cell count vs disease control)”, the “Total Leukocytes in BALF, reduction” value ([5]; 7.5 mg/kg IV) was “+ (+ = >5% reduction in cell count vs disease control)” and the “neutrophil counts compared to LPS-only controls (in words)” value ([5]; rat, in vivo) was “reduced both total leukocyte counts and neutrophil counts”. The “total leukocyte counts compared to LPS-only controls (in words)” value ([5]; rat, in vivo) was “reduced both total leukocyte counts and neutrophil counts”, the “synapse counts (in words)” value (Rat hippocampal neurons [6]) was “increase synapse counts at doses of 1 nM and 100 nM” and the “Significant increase in: Synapses” value (Rat hippocampal neurons [6]; 1 nM) was “++++ (++++ = p < 0.0001)”. The “Significant increase in: Synapses” value (Rat hippocampal neurons [6]; 100 nM) was “++++ (++++ = p < 0.0001)”, the “Significant reduction in IL-1β” value ([2]; 0.1 nM) was “++ (indicates a p value<0.01 in Tukey post test)” and the “Significant reduction in IL-6” value ([2]; 0.1 nM) was “NS”. The “Significant reduction in TNF-α” value ([2]; 0.1 nM) was “NS”, the “Significant reduction in IL-1β” value ([2]; 10 nM) was “++ (indicates a p value<0.01 in Tukey post test)” and the “Significant reduction in IL-6” value ([2]; 10 nM) was “+ (indicates a p value<0.05 in Tukey post test)”. The “Significant reduction in TNF-α” value ([2]; 10 nM) was “NS”, the “Significant reduction in IL-1β” value ([2]; 1000 nM) was “++ (indicates a p value<0.01 in Tukey post test)” and the “Significant reduction in IL-6” value ([2]; 1000 nM) was “++ (indicates a p value<0.01 in Tukey post test)”. The “Significant reduction in TNF-α” value ([2]; 1000 nM) was “+ (indicates a p value<0.05 in Tukey post test)”, the “expression of IL-1β (in words)” value ([2]; at at least one tested dose) was “significantly reduced the expression of IL-1β and TNF-α” and the “expression of IL-6 (in words)” value ([2]; at at least one tested dose) was “significantly reduced the expression of IL-6”. For the same molecule, the “expression of TNF-α (in words)” value ([2]; at at least one tested dose) was “significantly reduced the expression of IL-1β and TNF-α”, the “Recovery (%)” value ([7]; 1.25 mg/kg p.o. 14 days) was 58% and the “Spontaneous alternation (%) Mean” value ([7]; 1.25 mg/kg p.o. 14 days) was 59%. For the same molecule, the “Spontaneous alternation (%) Mean” value ([7]; 1.25 mg/kg p.o. 14 days, listed as Cmpd 5a) was 59.3%, the “Recovery (%)” value ([7]; 2.5 mg/kg p.o. 14 days) was 53% and the “Spontaneous alternation (%) Mean” value ([7]; 2.5 mg/kg p.o. 14 days) was 58%. The “Spontaneous alternation (%) Mean” value ([7]; 2.5 mg/kg p.o. 14 days, listed as Cmpd 5a) was 57.9%, the “Recovery (%)” value ([7]; 5 mg/kg p.o. 14 days) was 64% and the “Spontaneous alternation (%) Mean” value ([7]; 5 mg/kg p.o. 14 days) was 61%. The “Spontaneous alternation (%) Mean” value ([7]; 5 mg/kg p.o. 14 days, listed as Cmpd 5a) was 60.7%, the “Recovery (%)” value ([7]; 10 mg/kg p.o. 14 days) was 53% and the “Spontaneous alternation (%) Mean” value ([7]; 10 mg/kg p.o. 14 days) was 58%. The “Spontaneous alternation (%) Mean” value ([7]; 10 mg/kg p.o. 14 days, listed as Cmpd 5a) was 57.9%, the “Recovery (%)” value ([7]; 20 mg/kg p.o. 14 days) was 61% and the “Spontaneous alternation (%) Mean” value ([7]; 20 mg/kg p.o. 14 days) was 60%. For the same molecule, the “Spontaneous alternation (%) Mean” value ([7]; 20 mg/kg p.o. 14 days, listed as Cmpd 5a) was 60.0%, the “significance of reversal of LPS-induced cognitive deficit (in words)” value ([7]; T-maze) was “significant reversal of LPS-induced cognitive deficits at all doses” and the “Significance … vs 1 uM LPS” value ([3]; 0.1 nM) was “+++ (+++ indicates p<0.001)”. For the same molecule, the “Significance … vs 1 uM LPS” value ([3]; 1 nM) was “+++ (+++ indicates p<0.001)”, the “Significance … vs 1 uM LPS” value ([3]; 10 nM) was “+++ (+++ indicates p<0.001)” and the “Significance … vs 1 uM LPS” value ([3]; 100 nM) was “+++ (+++ indicates p<0.001)”. For the same molecule, the “Significance … vs 1 uM LPS” value ([3]; 1 μM) was “+++ (+++ indicates p<0.001)”, the “protection of primary neurons from LPS-stimulated inflammatory toxicity” value [3] was “protected primary neurons from LPS-stimulated inflammatory toxicity” and the “neurite length / extension of neurites (in words)” value (Rat hippocampal neurons [8]) was “increase neurite length at 1 nM”. The “Significant increase in: Neurite length” value (Rat hippocampal neurons [8]; 1 nM, Table 4 study) was “++++ (++++ = p < 0.0001)”.
